# Experimental data from paper PMC5218480 (PLoS ONE, 2017).
# Test system: MV-4-11 cells
# Experiment: Gene expression microarray analysis (Affymetrix PrimeView) and GSEA
# Type: cell-based, human
# Parameters: RFU PODN (11730768_x_at) / Fold change /veh PODN (11730768_x_at) / RFU LINC00158 (11744669_a_at) / Fold change /veh LINC00158 (11744669_a_at) / RFU DUSP10 (11751237_a_at) / Fold change /veh DUSP10 (11751237_a_at) / RFU ID3 (11757404_x_at) / Fold change /veh ID3 (11757404_x_at) / RFU PLEKHG5 (11737974_s_at) / Fold change /veh PLEKHG5 (11737974_s_at) / RFU LRRC4B (11730491_at) / Fold change /veh LRRC4B (11730491_at) / RFU GIMAP4 (11747438_a_at) / Fold change /veh GIMAP4 (11747438_a_at) / RFU KRT8 (11758183_x_at) / Fold change /veh KRT8 (11758183_x_at) / RFU CNN1 (11734310_a_at) / Fold change /veh CNN1 (11734310_a_at) / RFU VPS37D (11726825_at) / Fold change /veh VPS37D (11726825_at) / RFU C10orf10 (11716522_x_at) / Fold change /veh C10orf10 (11716522_x_at) / RFU KIR2DL2 /// KIR2DL4 /// KIR2DL5A /// KIR2DL5B /// KIR2DS1 /// KIR2DS2 /// KIR2DS3 /// KIR2DS4 /// KIR3DL3 /// KIR3DL3 /// KIR3DS1 (11738374_at) / Fold change /veh KIR2DL2 /// KIR2DL4 /// KIR2DL5A /// KIR2DL5B /// KIR2DS1 /// KIR2DS2 /// KIR2DS3 /// KIR2DS4 /// KIR3DL3 /// KIR3DL3 /// KIR3DS1 (11738374_at) / RFU C1QL1 (11718748_at) / Fold change /veh C1QL1 (11718748_at) / RFU TMPRSS4 (11747572_a_at) / Fold change /veh TMPRSS4 (11747572_a_at) / RFU HAMP (11756126_x_at) / Fold change /veh HAMP (11756126_x_at) / RFU RNFT2 (11725882_a_at) / Fold change /veh RNFT2 (11725882_a_at) / RFU NR4A2 (11747474_a_at) / Fold change /veh NR4A2 (11747474_a_at) / RFU ABCC12 (11746883_a_at) / Fold change /veh ABCC12 (11746883_a_at) / RFU TMEM136 (11760407_x_at) / Fold change /veh TMEM136 (11760407_x_at) / RFU CLDN22 /// WWC2 (11732394_at) / Fold change /veh CLDN22 /// WWC2 (11732394_at) / RFU HLA-DPB1 (11760878_x_at) / Fold change /veh HLA-DPB1 (11760878_x_at) / RFU SPINT1 (11716480_a_at) / Fold change /veh SPINT1 (11716480_a_at) / RFU GAP43 (11754022_s_at) / Fold change /veh GAP43 (11754022_s_at) / RFU A4GNT (11735810_at) / Fold change /veh A4GNT (11735810_at) / RFU PRB3 (11715151_x_at) / Fold change /veh PRB3 (11715151_x_at) / RFU TUBB4B (11761932_at) / Fold change /veh TUBB4B (11761932_at) / RFU CAPN14 (11732068_a_at) / Fold change /veh CAPN14 (11732068_a_at) / RFU TMCC2 (11721928_a_at) / Fold change /veh TMCC2 (11721928_a_at) / RFU IRGQ (11745062_a_at) / Fold change /veh IRGQ (11745062_a_at) / RFU FAM174B (11720279_a_at) / Fold change /veh FAM174B (11720279_a_at) / RFU TMPRSS4 (11748680_a_at) / Fold change /veh TMPRSS4 (11748680_a_at) / RFU FAM212B (11763350_a_at) / Fold change /veh FAM212B (11763350_a_at) / RFU PLEKHG5 (11743358_a_at) / Fold change /veh PLEKHG5 (11743358_a_at) / RFU ZSCAN30 (11745921_a_at) / Fold change /veh ZSCAN30 (11745921_a_at) / RFU CMKLR1 (11741424_a_at) / Fold change /veh CMKLR1 (11741424_a_at) / RFU LOC101060620 /// MAPK8IP1 (11723275_at) / Fold change /veh LOC101060620 /// MAPK8IP1 (11723275_at) / RFU SPTSSB (11747773_x_at) / Fold change /veh SPTSSB (11747773_x_at) / RFU PRSS12 (11739890_at) / Fold change /veh PRSS12 (11739890_at) / RFU BIN1 (11741810_x_at) / Fold change /veh BIN1 (11741810_x_at) / RFU WNT11 (11732464_a_at) / Fold change /veh WNT11 (11732464_a_at) / RFU C10orf10 (11716521_a_at) / Fold change /veh C10orf10 (11716521_a_at) / RFU C5orf56 (11738089_at) / Fold change /veh C5orf56 (11738089_at) / RFU CYB561 (11721691_x_at) / Fold change /veh CYB561 (11721691_x_at) / RFU ANKRD19P (11752326_a_at) / Fold change /veh ANKRD19P (11752326_a_at) / RFU OR2T12 /// OR2T33 /// OR2T8 (11738714_s_at) / Fold change /veh OR2T12 /// OR2T33 /// OR2T8 (11738714_s_at) / RFU VCAN (11748164_a_at) / Fold change /veh VCAN (11748164_a_at) / RFU JSRP1 (11732532_at) / Fold change /veh JSRP1 (11732532_at) / RFU KRTAP10-11 (11738290_x_at) / Fold change /veh KRTAP10-11 (11738290_x_at) / RFU MYO3A (11730013_a_at) / Fold change /veh MYO3A (11730013_a_at) / RFU EBF3 (11725865_a_at) / Fold change /veh EBF3 (11725865_a_at) / RFU CAMK2N1 (11719241_x_at) / Fold change /veh CAMK2N1 (11719241_x_at) / RFU C5orf56 (11738088_a_at) / Fold change /veh C5orf56 (11738088_a_at) / RFU OLFML3 (11715873_a_at) / Fold change /veh OLFML3 (11715873_a_at) / RFU LOC100653217 /// NTM (11731650_a_at) / Fold change /veh LOC100653217 /// NTM (11731650_a_at) / RFU MAPK11 (11762145_a_at) / Fold change /veh MAPK11 (11762145_a_at) / RFU FIZ1 (11724087_x_at) / Fold change /veh FIZ1 (11724087_x_at) / RFU OASL (11726364_x_at) / Fold change /veh OASL (11726364_x_at) / RFU SOX15 (11748057_x_at) / Fold change /veh SOX15 (11748057_x_at) / RFU CD79A (11719716_a_at) / Fold change /veh CD79A (11719716_a_at) / RFU HIST1H1D (11736915_at) / Fold change /veh HIST1H1D (11736915_at) / RFU CASKIN2 (11723855_a_at) / Fold change /veh CASKIN2 (11723855_a_at) / RFU LOC730098 (11760151_x_at) / Fold change /veh LOC730098 (11760151_x_at) / RFU OR4N2 (11742367_at) / Fold change /veh OR4N2 (11742367_at) / RFU PRRT2 (11749266_a_at) / Fold change /veh PRRT2 (11749266_a_at) / RFU SNX32 (11753110_a_at) / Fold change /veh SNX32 (11753110_a_at) / RFU CDHR5 (11726645_a_at) / Fold change /veh CDHR5 (11726645_a_at) / RFU RCAN1 (11760418_a_at) / Fold change /veh RCAN1 (11760418_a_at) / RFU FAM167A (11723789_a_at) / Fold change /veh FAM167A (11723789_a_at) / RFU FAM26E (11764081_at) / Fold change /veh FAM26E (11764081_at) / RFU ISYNA1 (11749810_s_at) / Fold change /veh ISYNA1 (11749810_s_at) / RFU ACY1 (11761880_at) / Fold change /veh ACY1 (11761880_at) / RFU 11764098_at / Fold change /veh 11764098_at / RFU SAMD14 (11745864_x_at) / Fold change /veh SAMD14 (11745864_x_at) / RFU NPB (11741838_a_at) / Fold change /veh NPB (11741838_a_at) / RFU TMPRSS6 (11731388_a_at) / Fold change /veh TMPRSS6 (11731388_a_at) / RFU KRTAP10-2 (11738614_at) / Fold change /veh KRTAP10-2 (11738614_at) / RFU ARHGAP8 /// PRR5-ARHGAP8 (11727945_x_at) / Fold change /veh ARHGAP8 /// PRR5-ARHGAP8 (11727945_x_at) / RFU KRTAP5-7 /// NADSYN1 (11734609_at) / Fold change /veh KRTAP5-7 /// NADSYN1 (11734609_at) / RFU RASL12 (11751679_a_at) / Fold change /veh RASL12 (11751679_a_at) / RFU CDKN2B (11736163_a_at) / Fold change /veh CDKN2B (11736163_a_at) / RFU PRF1 (11729649_at) / Fold change /veh PRF1 (11729649_at) / RFU, ZNF638 /// ZNF638-IT1 / Fold change vs veh, ZNF638 /// ZNF638-IT1 / RFU, PANK3 / Fold change vs veh, PANK3 / RFU, SH3YL1 / Fold change vs veh, SH3YL1 / RFU, ZEB2 / Fold change vs veh, ZEB2 / RFU, NRIP1 / Fold change vs veh, NRIP1 / RFU, PTTG1IP / Fold change vs veh, PTTG1IP / RFU, CAPN2 / Fold change vs veh, CAPN2 / RFU, MED14 / Fold change vs veh, MED14 / RFU, SNORA58 / Fold change vs veh, SNORA58 / RFU, C1orf63 / Fold change vs veh, C1orf63 / RFU, LRRFIP1 / Fold change vs veh, LRRFIP1 / RFU, NDUFAF7 / Fold change vs veh, NDUFAF7 / RFU, SLC12A2 / Fold change vs veh, SLC12A2 / RFU, IBTK / Fold change vs veh, IBTK / RFU, ESF1 / Fold change vs veh, ESF1 / Fold change vs veh, TMEM50B / RFU, TAOK1 / Fold change vs veh, TAOK1 / RFU, ACBD3 / Fold change vs veh, ACBD3 / RFU, TMA16 / Fold change vs veh, TMA16 / RFU, RWDD3 / Fold change vs veh, RWDD3 / RFU, BCAT1 / Fold change vs veh, BCAT1 / RFU, EDEM3 / Fold change vs veh, EDEM3 / RFU, TMEM33 / Fold change vs veh, TMEM33 / RFU, WDR75 / Fold change vs veh, WDR75 / RFU, AHCTF1 / Fold change vs veh, AHCTF1 / RFU, TFRC / Fold change vs veh, TFRC / RFU, ZDHHC17 / Fold change vs veh, ZDHHC17 / RFU, NOM1 / Fold change vs veh, NOM1 / RFU, ARL8B / Fold change vs veh, ARL8B / RFU, ZBTB11 / Fold change vs veh, ZBTB11 / RFU, TAMM41 / Fold change vs veh, TAMM41 / RFU, KIAA1704 /// LOC100996395 / Fold change vs veh, KIAA1704 /// LOC100996395 / RFU, ING1 / Fold change vs veh, ING1 / RFU, TRMT61B / Fold change vs veh, TRMT61B / RFU, FUBP3 / Fold change vs veh, FUBP3 / RFU, TP53 / Fold change vs veh, TP53 / RFU, TNKS2 / Fold change vs veh, TNKS2 / RFU, ZFP14 / Fold change vs veh, ZFP14 / RFU, ACTR2 / Fold change vs veh, ACTR2 / RFU, PPP3R1 / Fold change vs veh, PPP3R1 / RFU, PIK3R1 / Fold change vs veh, PIK3R1 / RFU, HNRNPA1 / Fold change vs veh, HNRNPA1 / RFU, RNF170 / Fold change vs veh, RNF170 / RFU, ZNF28 / Fold change vs veh, ZNF28 / RFU, RNGTT / Fold change vs veh, RNGTT / RFU, OGT / Fold change vs veh, OGT / RFU, BRD1 / Fold change vs veh, BRD1 / RFU, MARS / Fold change vs veh, MARS / RFU, ZNF655 / Fold change vs veh, ZNF655 / RFU, FAHD1 / Fold change vs veh, FAHD1 / RFU, BDP1 / Fold change vs veh, BDP1 / RFU, LRRCC1 / Fold change vs veh, LRRCC1 / RFU, ARID1A / Fold change vs veh, ARID1A / RFU, ZNF146 / Fold change vs veh, ZNF146 / RFU, ZNF330 / Fold change vs veh, ZNF330 / RFU, GPN3 / Fold change vs veh, GPN3 / RFU, C9orf123 / Fold change vs veh, C9orf123 / RFU, N4BP2L2 / Fold change vs veh, N4BP2L2 / RFU, ARFIP1 / Fold change vs veh, ARFIP1 / RFU, FAM179B / Fold change vs veh, FAM179B / RFU, BCL10 / Fold change vs veh, BCL10 / RFU, UHRF1BP1L / Fold change vs veh, UHRF1BP1L / RFU, BET1 / Fold change vs veh, BET1 / RFU, CNOT2 / Fold change vs veh, CNOT2 / RFU, ZNF268 / Fold change vs veh, ZNF268 / Fold change vs veh, ZNF507 / RFU, DGCR2 / Fold change vs veh, DGCR2 / RFU, WDSUB1 / Fold change vs veh, WDSUB1 / Fold change vs veh, HSP90B1 /// MIR3652 / RFU, ADSS / Fold change vs veh, ADSS / RFU, GK / Fold change vs veh, GK / RFU, ZNF148 / Fold change vs veh, ZNF148 / RFU, TAF9 / Fold change vs veh, TAF9 / RFU, SLC1A5 / Fold change vs veh, SLC1A5 / RFU, SLMO2 / Fold change vs veh, SLMO2 / RFU, ABCC4 / Fold change vs veh, ABCC4 / RFU, LOC101060439 /// RAP1B / Fold change vs veh, LOC101060439 /// RAP1B / RFU, RFX7 / Fold change vs veh, RFX7 / RFU, GTPBP10 / Fold change vs veh, GTPBP10 / RFU, CNEP1R1 / Fold change vs veh, CNEP1R1 / RFU, BIVM-ERCC5 /// ERCC5 / Fold change vs veh, BIVM-ERCC5 /// ERCC5 / RFU, ILF3 / Fold change vs veh, ILF3 / RFU 11762660_at / Fold change /veh 11762660_at / RFU VCAN (11757783_s_at) / Fold change /veh VCAN (11757783_s_at) / RFU DDX43 (11728927_at) / Fold change /veh DDX43 (11728927_at) / RFU KRT8 (11758188_x_at) / Fold change /veh KRT8 (11758188_x_at) / RFU NKD1 (11759106_at) / Fold change /veh NKD1 (11759106_at) / RFU SRD5A1 (11742802_a_at) / Fold change /veh SRD5A1 (11742802_a_at) / RFU TPSAB1 /// TPSB2 (11721975_s_at) / Fold change /veh TPSAB1 /// TPSB2 (11721975_s_at) / RFU GSTM3 (11746129_a_at) / Fold change /veh GSTM3 (11746129_a_at) / RFU IL23R (11737362_x_at) / Fold change /veh IL23R (11737362_x_at) / RFU TMEM51 (11727254_a_at) / Fold change /veh TMEM51 (11727254_a_at) / RFU PIWIL2 (11732686_x_at) / Fold change /veh PIWIL2 (11732686_x_at) / RFU ORM1 (11744905_x_at) / Fold change /veh ORM1 (11744905_x_at) / RFU CCDC152 (11743942_at) / Fold change /veh CCDC152 (11743942_at) / RFU ECM1 (11717891_a_at) / Fold change /veh ECM1 (11717891_a_at) / RFU IL23R (11748794_a_at) / Fold change /veh IL23R (11748794_a_at) / RFU TNFAIP8L3 (11732012_x_at) / Fold change /veh TNFAIP8L3 (11732012_x_at) / RFU MBOAT4 (11741988_at) / Fold change /veh MBOAT4 (11741988_at) / RFU 11764193_at / Fold change /veh 11764193_at / RFU TMEM53 (11763286_at) / Fold change /veh TMEM53 (11763286_at) / RFU MAGEB2 (11727129_at) / Fold change /veh MAGEB2 (11727129_at) / RFU TMEM200A (11744735_a_at) / Fold change /veh TMEM200A (11744735_a_at) / RFU CCDC152 (11751479_a_at) / Fold change /veh CCDC152 (11751479_a_at) / RFU FAM211A (11726209_a_at) / Fold change /veh FAM211A (11726209_a_at) / RFU RGS16 (11746705_a_at) / Fold change /veh RGS16 (11746705_a_at) / RFU VCAN (11755009_s_at) / Fold change /veh VCAN (11755009_s_at) / RFU RHOB (11743442_s_at) / Fold change /veh RHOB (11743442_s_at) / RFU RGS16 (11720943_a_at) / Fold change /veh RGS16 (11720943_a_at) / RFU RGS16 (11720944_at) / Fold change /veh RGS16 (11720944_at) / RFU, VPS4B / Fold change vs veh, VPS4B / RFU, CREB1 / Fold change vs veh, CREB1 / RFU, DNAJC13 / Fold change vs veh, DNAJC13 / RFU, GNAQ / Fold change vs veh, GNAQ / RFU, CDK5R1 / Fold change vs veh, CDK5R1 / RFU, ZRANB3 / Fold change vs veh, ZRANB3 / RFU, CUL4A / Fold change vs veh, CUL4A / RFU, CCNY / Fold change vs veh, CCNY / RFU, UFL1 / Fold change vs veh, UFL1 / RFU, COG3 / Fold change vs veh, COG3 / RFU, DIAPH2 / Fold change vs veh, DIAPH2 / RFU, SKA2 / Fold change vs veh, SKA2 / RFU, AFF3 / Fold change vs veh, AFF3 / RFU, LMF1 / Fold change vs veh, LMF1 / RFU, IPO11 / Fold change vs veh, IPO11 / RFU, DFFB / Fold change vs veh, DFFB / RFU, FOXP1 / Fold change vs veh, FOXP1 / RFU, CARD8 / Fold change vs veh, CARD8 / RFU, STRN3 / Fold change vs veh, STRN3 / RFU, ADK / Fold change vs veh, ADK / RFU, RASSF2 / Fold change vs veh, RASSF2 / RFU, WIPF1 / Fold change vs veh, WIPF1 / RFU, LARP1B / Fold change vs veh, LARP1B / RFU, RASA1 / Fold change vs veh, RASA1 / RFU, RB1 / Fold change vs veh, RB1 / RFU, PPFIA1 / Fold change vs veh, PPFIA1 / RFU, MAT2A / Fold change vs veh, MAT2A / RFU, CCT5 / Fold change vs veh, CCT5 / RFU, WDR92 / Fold change vs veh, WDR92 / RFU, CUX1 / Fold change vs veh, CUX1 / RFU, TTC7A / Fold change vs veh, TTC7A / RFU, TMEM135 / Fold change vs veh, TMEM135 / RFU, DEPTOR / Fold change vs veh, DEPTOR / RFU, CPM / Fold change vs veh, CPM / RFU, DNAJB6 / Fold change vs veh, DNAJB6 / RFU, CACNA2D3 / Fold change vs veh, CACNA2D3 / RFU, DTX4 / Fold change vs veh, DTX4 / RFU, TFCP2 / Fold change vs veh, TFCP2 / RFU, GMCL1 /// GMCL1P1 / Fold change vs veh, GMCL1 /// GMCL1P1 / RFU, AEBP2 / Fold change vs veh, AEBP2 / RFU, SNHG1 /// SNORD22 /// SNORD25 /// SNORD26 /// SNORD27 /// SNORD28 /// SNORD29 /// SNORD31 / Fold change vs veh, SNHG1 /// SNORD22 /// SNORD25 /// SNORD26 /// SNORD27 /// SNORD28 /// SNORD29 /// SNORD31 / Fold change (Aza/veh), C12orf56 (ProbeSet 11735607_a_at) / Fold change (ACY-1035/veh), C12orf56 (ProbeSet 11735607_a_at) / Fold change (Aza/veh), FGFR1OP (ProbeSet 11751329_s_at) / Fold change (ACY-1035/veh), FGFR1OP (ProbeSet 11751329_s_at) / Fold change (Aza/veh), VPS36 (ProbeSet 11739960_a_at) / Fold change (ACY-1035/veh), VPS36 (ProbeSet 11739960_a_at) / RFU SYPL1 (11715823_x_at) / Fold change /veh SYPL1 (11715823_x_at) / RFU IGFBP7 (11715501_s_at) / Fold change /veh IGFBP7 (11715501_s_at) / RFU REEP3 (11722064_at) / Fold change /veh REEP3 (11722064_at) / RFU IGLL1 (11728026_x_at) / Fold change /veh IGLL1 (11728026_x_at): dose or concentration left out as unconfirmed
# Settings: MV-4-11 cells, 48 hours
structure (smiles),measurement,value
Nc1ncn([C@@H]2O[C@H](CO)[C@@H](O)[C@H]2O)c(=O)n1 [azacitidine],RFU LOC730098 (11760151_x_at),36.57 RFU
